tested on: Haemonchus contortus; assay: Haemonchus contortus larvacidal assay: NemaTOX H. contortus dose response (larval development, eggs to L3); format: cell-based; details: Haemonchus contortus, 144 h; Table 1; concentration required to inhibit development in 99% of the nematode larvae; eggs on agar to L3 stage (6 days); two-fold dilutions, 0.024 to 50 μg/ml; read-out: LD99
Protocol: Haemonchus Contortus Larvacidal Assay: NemaTOX H.contortus Dose Response (00/0510)
Effect on larval development is determined in the assay described by Gill et al. (International Journal of Parasitology, 1995, 25, 463-470). Briefly, in this assay nematode eggs were applied to the surface of an agar matrix containing the test compound and then allowed to develop through to the L3, infective stage (6 days)
The wells for each dilution of every compound (from highest to lowest concentration) were inspected to determine the well number corresponding to the lowest concentration at which development was inhibited in 99% of the nematode larvae present. As the well numbers correspond to a two-fold serial dilution of each compound, a titre (dilution factor) is generated as 2^n-1, where n is the well number. By dividing the highest concentration tested by the titre an LD99 value can be obtained, representing the concentration required to inhibit development in 99% of the nematode larvae present.
The compounds supplied as solid and viscous liquids were dissolved in DMSO. Twelve serial 1/2 dilutions in DMSO solution were prepared from the stock solution, each of which was then diluted 1/5 with water. Aliquots (10 μl) of each dilution were transferred to the bioassay plates to give a final concentration range of 0.024 to 50 μg/ml.
In Tables 1, 2 and 3 the Haemonchus contortus LD99 values for compounds in accordance with the present invention are listed, measured in micrograms/mL.

| Compound | IC99 [µg/mL] |
| --- | --- |
| c1cc2c(cc1-c1cn3nc(OCC4CC4)ccc3n1)OCO2 [Compound 43, 2-(3,4-Methylendioxyphenyl)-6-cyclopropylmethoxyimidazo[1,2-b]pyridazine] | 0.117 |
| Cc1c(-c2cccs2)nc2ccc(OCC3CC3)nn12 [Compound 44] | 0.375 |

same assay, conditions: Table 1; concentration required to inhibit development in 99% of the nematode larvae; eggs on agar to L3 stage (6 days); two-fold dilutions, 0.024 to 50 μg/ml

| Compound | LD99 [micrograms/mL] |
| --- | --- |
| CCOc1ccc(-c2cn3nc(SCc4ccc(OC)cc4)ccc3n2)cc1 [Compound 41] | 11 |
| CCCSc1ccc2nc(-c3ccc(C)cc3)cn2n1 [Compound 7] | 0.938 |
| CCCOc1ccc2nc(-c3ccc(Cl)cc3)cn2n1 [Compound 11] | 3.75 |
| CCOc1ccc(-c2cn3nc(OC(C)C)ccc3n2)cc1 [Compound 51] | 1.875 |
| CCCOc1ccc2nc(-c3ccc(OCC)cc3)c(Br)n2n1 [Compound 40] | 0.344 |
| CCOc1ccc(-c2cn3nc(OCC)ccc3n2)cc1 [Compound 60] | 0.172 |
| COc1ccc(-c2cn3nc(OC)ccc3n2)cc1 [Compound 18] | 3 |
| CCSc1ccc2nc(-c3ccccc3)c(OC)n2n1 [Compound 24] | 7.5 |
| CCCOc1ccc2nc(-c3ccc(Cl)s3)cn2n1 [Compound 34] | 0.188 |
| CSc1ccc2nc(-c3ccc4c(c3)OCO4)cn2n1 [Compound 6] | 3.25 |
| CCOc1ccc(-c2cn3nc(SC(C)C)ccc3n2)cc1 [Compound 50] | 0.875 |
| c1ccc(Sc2ccc3nc(-c4ccccc4)cn3n2)cc1 [Compound 5] | 1.625 |
| CCCOc1nn2cc(-c3ccc(OCC)cc3)nc2c2ccccc12 [Compound 62] | 0.625 |
| CCCOc1ccc2nc(-c3ccc(OC)cc3)c(C)n2n1 [Compound 37] | 0.344 |
| CCCOc1ccc2nc(-c3ccc(OCC)cc3)cn2n1 [Compound 27] | 0.1 |
| COc1ccc(-c2cn3nc(SCC(C)C)ccc3n2)cc1OC [Compound 57] | 1.375 |
| COc1c(-c2ccccc2)nc2ccc(Sc3ccccc3)nn12 [Compound 21] | >15.0 |
| COc1c(-c2ccccc2)nc2ccc(OCc3ccccc3)nn12 [Compound 23] | >15.0 |
| CCCSc1ccc2nc(-c3cc(OC)c(OC)c(OC)c3)cn2n1 [Compound 14] | >15.0 |
| CCOc1ccc(-c2cn3nc(SCc4ccc(Cl)cc4)ccc3n2)cc1 [Compound 42] | 3 |

same assay, conditions: Table 2; concentration required to inhibit development in 99% of the nematode larvae; eggs on agar to L3 stage (6 days); two-fold dilutions, 0.024 to 50 μg/ml

| Compound | LD99 [micrograms/mL] |
| --- | --- |
| CCCOc1ccc2nc(-c3ccc(OCCOC)cc3)c(C)n2n1 [Compound 84] | 0.109 |
| COCCOc1ccc(-c2cn3nc(N4CCCCC4)ccc3n2)cc1 [Compound 67] | 1.5 |
| COCCOc1cccc(-c2nc3ccc(OCC4CC4)nn3c2C)c1 [Compound 95] | 0.875 |
| COCCOc1ccc(-c2cn3nc(SCC(C)C)ccc3n2)cc1 [Compound 108] | 0.313 |
| CCSc1ccc2nc(-c3ccc(OCCOC)cc3)cn2n1 [Compound 101] | 0.3123 |
| CCCCOc1ccc2nc(-c3ccc(OCCOC)c(OC)c3)cn2n1 [Compound 106] | 0.313 |
| COCCOc1ccc(-c2cn3nc(OC4CCCC4)ccc3n2)cc1 [Compound 73] | 1.875 |
| CCCOc1ccc2nc(-c3ccc(OCCOC)c(OC)c3)c(I)n2n1 [Compound 113] | 5 |
| COCCOc1ccc(-c2cn3nc(OC(C)C)ccc3n2)cc1 [Compound 112] | 1.63 |
| COCCOc1cccc(-c2nc3ccc(SCC(C)C)nn3c2C)c1 [Compound 102] | 12 |
| COCCOc1ccc(-c2cn3ncccc3n2)cc1 [Compound 69] | 15 |
| CCCOc1ccc2nc(-c3cccc(OCCOC)c3)c(C)n2n1 [Compound 94] | 1.88 |
| COCCOc1ccc(-c2nc3ccc(SCC(C)C)nn3c2CN(C)C)cc1 [Compound 114] | 3.25 |

Reference: patent publication US7759349B2, “Control of parasites in animals by the use of imidazo[1,2-b]pyridazine derivatives” (Schering-Plough Animal Health Corporation, priority 2003, dated 2010)
